Results taken from patent US11339155B2, “2-(het)aryl-substituted fused bicyclic heterocycle derivatives as pesticides” (Bayer CropScience Aktiengesellschaft, priority 2016, dated 2022).

Columns and labels:
Ctenocephalides felis [1] = assay: Ctenocephalides felis in vitro contact test with adult cat fleas; format: in vivo; conditions: 5 μg/cm^2 (=500 g/ha), after 48 h
Method: For the coating of the test tubes, 9 mg of active compound are first dissolved in 1 ml of acetone p.a. and then diluted to the desired concentration with acetone p.a. 250 μl of the solution are distributed homogeneously on the inner walls and the base of a 25 ml glass tube by turning and rocking on an orbital shaker (rocking rotation at 30 rpm for 2 h). With 900 ppm of active compound solution and internal surface area 44.7 cm^2, given homogeneous distribution, an area-based dose of 5 μg/cm^2 is achieved.
After the solvent has evaporated off, the tubes are populated with 5-10 adult cat fleas (Ctenocephalides felis), sealed with a perforated plastic lid and incubated in a horizontal position at room temperature and ambient humidity. After 48 h, efficacy is determined. To this end, the tubes are stood upright and the fleas are knocked to the base of the tube. Fleas which remain motionless at the base or move in an uncoordinated manner are considered to be dead or moribund.
100% efficacy means that all the fleas were dead or moribund. 0% efficacy means that no fleas were harmed.

Ctenocephalides felis [2] = assay: Ctenocephalides felis oral test; format: in vivo; conditions: 100 ppm in citrated cattle blood, adult cat fleas, after 2 days
Method: Solvent: dimethyl sulfoxide To produce a suitable active compound preparation, 10 mg of active compound are mixed with 0.5 ml of dimethyl sulfoxide. Dilution with citrated cattle blood gives the desired concentration. About 20 unfed adult cat fleas (Ctenocephalides felis) are placed into a chamber which is closed at the top and bottom with gauze. A metal cylinder whose bottom end is closed with parafilm is placed onto the chamber. The cylinder contains the blood/active compound preparation, which can be imbibed by the fleas through the parafilm membrane. After 2 days, the kill in % is determined. 100% means that all of the fleas have been killed; 0% means that none of the fleas have been killed.

Lucilia cuprina = Lucilia cuprina test; format: in vivo; conditions: 100 ppm, L1 larvae, after 2 days
Method: Solvent: dimethyl sulfoxide To produce a suitable active compound preparation, 10 mg of active compound are mixed with 0.5 ml of dimethyl sulfoxide, and the concentrate is diluted with water to the desired concentration. About 20 L1 larvae of the Australian sheep blowfly (Lucilia cuprina) are transferred into a test vessel containing minced horsemeat and the active compound preparation of the desired concentration. After 2 days, the kill in % is determined. 100% means that all the larvae have been killed; 0% means that no larvae have been killed.

Myzus persicae [3] = assay: Myzus persicae spray test (MYZUPE); format: in vivo; conditions: 120 h; for pest or weed control at 500 g/ha / pest or weed control at 100 g/ha: foliar, Chinese cabbage leaf discs, after 5 days, read-out: efficacy; for Emax at 20 g/ha: MYZUPE, 5 dat, read-out: % efficacy
Method: Solvent: 78 parts by weight of acetone • • 1.5 parts by weight of dimethylformamide
(§1) Emulsifier: alkylaryl polyglycol ether
(§2) To produce a suitable active compound preparation, 1 part by weight of active compound is dissolved with the specified parts by weight of solvent and made up to the desired concentration with water containing an emulsifier concentration of 1000 ppm. To produce further test concentrations, the formulation is diluted with emulsifier-containing water.
Discs of Chinese cabbage leaves (Brassica pekinensis) infested by all stages of the green peach aphid (Myzus persicae) are sprayed with an active compound preparation of the desired concentration.
(§3) After 5 days, the efficacy in % is determined. 100% means that all the aphids have been killed; 0% means that no aphids have been killed.
(§4) Solvent: 78.0 parts by weight of acetone • • 1.5 parts by weight of dimethylformamide
After the desired period of time, the efficacy in % is determined. 100% means that all the aphids have been killed; 0% means that no aphids have been killed.

Phaedon cochleariae = Phaedon cochleariae spray test (PHAECO); format: in vivo; conditions: for efficacy: larvae on Chinese cabbage leaf discs, after 7 days; for Emax at 20 g/ha: Phaedon cochleariae, 168 h, PHAECO, 7 dat, read-out: % efficacy
Method: as §4, §1, §2
After 7 days, the efficacy in % is determined. 100% means that all the beetle larvae have been killed; 0% means that no beetle larvae have been killed.
After the desired period of time, the efficacy in % is determined. 100% means that all the beetle larvae have been killed; 0% means that no beetle larvae have been killed.

Nezara viridula = Nezara viridula spray test (NEZAVI); format: in vivo; conditions: 96 h, 4 dat, read-out: % efficacy
Method: (§5) Solvent: 52.5 parts by weight of acetone • 7 parts by weight of dimethylformamide
as §1
(§6) To produce a suitable active compound preparation, 1 part by weight of active compound is dissolved with the specified parts by weight of solvent and made up to the desired concentration with water containing an emulsifier concentration of 1000 ppm. To produce further test concentrations, the formulation is diluted with emulsifier-containing water. If the addition of ammonium salts or/and penetrants is required, these are each added in a concentration of 1000 ppm to the formulation solution.
Barley plants (Hordeum vulgare) infected with larvae of the Southern green shield bug (Nezara viridula) are sprayed with an active compound preparation of the desired concentration.
After the desired period of time, the efficacy in % is determined. 100% means that all of the shield bugs have been killed; 0% means that none of the shield bugs have been killed.

[4] = log P by HPLC on reversed-phase column (EEC Directive 79/831 Annex V.A8); format: physicochemical; conditions: reversed-phase C18 HPLC column, C 18 reversed phase, 55° C., pH 7.8, read-out: log P (neutral)
Excerpt: Called log P (neutral) in the table.

Tetranychus urticae = Tetranychus urticae spray test, OP-resistant (TETRUR); format: in vivo; conditions: for Emax at 100 g/ha / Emax at 500 g/ha: Tetranychus urticae, 144 h, TETRUR, read-out: % efficacy; for Emax at 100 g/ha: 6 dat (comparative table); for Emax at 500 g/ha: 6 dat; for Emax at 100 g/ha / efficacy: 100 g/ha; for efficacy: bean leaf discs, after 6 days
Method: as §4, §1, §2
Discs of bean leaves (Phaseolus vulgaris) infested with all stages of the greenhouse red spider mite (Tetranychus urticae) are sprayed with an active compound preparation of the desired concentration.
After 6 days, the efficacy in % is determined. 100% means that all the spider mites have been killed; 0% means that no spider mites have been killed.
After the desired period of time, the efficacy in % is determined. 100% means that all the spider mites have been killed; 0% means that no spider mites have been killed.

Myzus persicae [5] = assay: Myzus persicae oral test; format: in vivo; conditions: 120 h, after 5 days, read-out: efficacy
Method: Solvent: 100 parts by weight of acetone
To produce a suitable active compound preparation, 1 part by weight of active compound is dissolved with the stated parts by weight of solvent and made up to the desired concentration with water.
50 μl of the active compound preparation are transferred into microtitre plates and made up to a final volume of 200 μl with 150 μl of IPL41 insect medium (33%+15% sugar). Subsequently, the plates are sealed with parafilm, which a mixed population of green peach aphids (Myzus persicae) within a second microtitre plate is able to puncture and imbibe the solution.
as §3

Meloidogyne incognita = Meloidogyne incognita test; format: in vivo; conditions: 20 ppm, lettuce, after 14 days
Method: Solvent: 125.0 parts by weight of acetone To produce a suitable active compound preparation, 1 part by weight of active compound is mixed with the stated amount of solvent and the concentrate is diluted to the desired concentration with water. Vessels are filled with sand, active compound solution, an egg/larvae suspension of the southern root-knot nematode (Meloidogyne incognita) and lettuce seeds. The lettuce seeds germinate and the plants develop. The galls develop on the roots. After 14 days, the nematicidal efficacy in % is determined by the formation of galls. 100% means that no galls were found; 0% means that the number of galls on the treated plants corresponds to the untreated control.

Nilaparvata lugens = Nilaparvata lugens spray test (NILALU); format: in vivo; conditions: 96 h, 4 dat, read-out: % efficacy
Method: as §5, §1, §6
Rice plants (Oryza sativa) are sprayed with an active compound preparation of the desired concentration and then populated with larvae of the brown planthopper (Nilaparvata lugens).
After the desired period of time, the efficacy in % is determined. 100% means that all of the planthoppers have been killed; 0% means that none of the planthoppers have been killed.

CCS(=O)(=O)c1ccc(NC(=O)NC)nc1-c1nc2cc(C(F)(F)F)ncc2n1C [Example I-4, 1-[5-Ethylsulfonyl-6-[3-methyl-6-(trifluoromethyl)imidazo[4,5-c]pyridin-2-yl]-2-pyridyl]-3-methylurea]
efficacy (Ctenocephalides felis [1]): 100%
efficacy (kill in %) (Ctenocephalides felis [2]): 100%
efficacy (kill in %) (Lucilia cuprina): 100%
pest or weed control at 500 g/ha (Myzus persicae [3]): 90%
efficacy (Phaedon cochleariae; 500 g/ha): 100%
Emax at 20 g/ha (Nezara viridula): 100%
chromatographic logP [4]: 1.83

CCC(=O)Nc1ccc(S(=O)(=O)CC)c(-c2nc3cc(C(F)(F)F)ncc3n2C)n1 [Example No. 13 known from WO 2016/124557, reference compound]
Emax at 20 g/ha (Phaedon cochleariae): 50%
Emax at 100 g/ha (Tetranychus urticae): 0%
Emax at 500 g/ha (Tetranychus urticae): 70%

CCS(=O)(=O)c1ccc(NC(=O)N2CCCC2)nc1-c1nc2cc(C(F)(F)F)ncc2n1C [Example I-14]
pest or weed control at 100 g/ha (Myzus persicae [3]): 90%
pest or weed control at 4 ppm (Myzus persicae [5]): 100%

CCS(=O)(=O)c1ccc(NC(C)=O)nc1-c1nc2cc(C(F)(F)F)ncc2n1C [reference compound]
Emax at 20 g/ha (Nezara viridula): 0%

CCS(=O)(=O)c1ccc(NC(=O)NCCC#N)nc1-c1nc2cc(C(F)(F)F)ncc2n1C [Example I-2]
efficacy (kill in %) (Ctenocephalides felis [2]): 100%
nematicidal efficacy (formation of galls) (Meloidogyne incognita): 100%
pest or weed control at 500 g/ha (Myzus persicae [3]): 90%
pest or weed control at 4 ppm (Myzus persicae [5]): 100%
pest or weed control at 20 ppm (Myzus persicae [5]): 100%

CCS(=O)(=O)c1ccc(NC(=O)NCCOC)nc1-c1nc2cc(C(F)(F)F)ncc2n1C [Example I-5]
efficacy (kill in %) (Ctenocephalides felis [2]): 80%
efficacy (kill in %) (Lucilia cuprina): 100%
nematicidal efficacy (formation of galls) (Meloidogyne incognita): 100%
pest or weed control at 500 g/ha (Myzus persicae [3]): 100%
pest or weed control at 4 ppm (Myzus persicae [5]): 100%
pest or weed control at 20 ppm (Myzus persicae [5]): 100%

CCNC(=O)Nc1ccc(S(=O)(=O)CC)c(-c2nc3cc(C(F)(F)F)ncc3n2C)n1 [Example I-1]
efficacy (kill in %) (Ctenocephalides felis [2]): 100%
nematicidal efficacy (formation of galls) (Meloidogyne incognita): 100%
pest or weed control at 500 g/ha (Myzus persicae [3]): 90%
efficacy (Phaedon cochleariae; 500 g/ha): 100%
Emax at 20 g/ha (Phaedon cochleariae): 83%
efficacy (Tetranychus urticae): 90%
Emax at 100 g/ha (Tetranychus urticae): 90%
Emax at 500 g/ha (Tetranychus urticae): 90%

CCS(=O)(=O)c1ccc(NC(=O)NCCS(C)(=O)=O)nc1-c1nc2cc(C(F)(F)F)ncc2n1C [Example I-8]
efficacy (kill in %) (Ctenocephalides felis [2]): 100%
pest or weed control at 100 g/ha (Myzus persicae [3]): 90%
pest or weed control at 4 ppm (Myzus persicae [5]): 90%
pest or weed control at 20 ppm (Myzus persicae [5]): 100%
efficacy (Tetranychus urticae): 100%

CCS(=O)(=O)c1ccc(NC(=O)NCCSC)nc1-c1nc2cc(C(F)(F)F)ncc2n1C [Example I-6]
pest or weed control at 100 g/ha (Myzus persicae [3]): 90%
pest or weed control at 4 ppm (Myzus persicae [5]): 100%
pest or weed control at 20 ppm (Myzus persicae [5]): 100%
efficacy (Phaedon cochleariae; 100 g/ha): 100%
efficacy (Tetranychus urticae): 70%

CCS(=O)(=O)c1ccc(N(C)C(=O)NC)nc1-c1nc2cc(C(F)(F)F)ncc2n1C [Example I-12]
Emax at 20 g/ha (Myzus persicae [3]): 90%
pest or weed control at 100 g/ha (Myzus persicae [3]): 90%
Emax at 4 g/ha (Nilaparvata lugens): 90%

CCS(=O)(=O)c1ccc(NC(=O)NC(C)C)nc1-c1nc2cc(C(F)(F)F)ncc2n1C [Example I-7]
efficacy (kill in %) (Ctenocephalides felis [2]): 100%
nematicidal efficacy (formation of galls) (Meloidogyne incognita): 90%

CCS(=O)(=O)c1ccc(NC(=O)NCC[S+](C)[O-])nc1-c1nc2cc(C(F)(F)F)ncc2n1C (stereo not shown) [Example I-3]
efficacy (kill in %) (Ctenocephalides felis [2]): 100%
nematicidal efficacy (formation of galls) (Meloidogyne incognita): 90%
pest or weed control at 100 g/ha (Myzus persicae [3]): 100%
pest or weed control at 4 ppm (Myzus persicae [5]): 100%
pest or weed control at 20 ppm (Myzus persicae [5]): 100%
efficacy (Tetranychus urticae): 100%

CCS(=O)(=O)c1ccc(NC(=O)n2cc(Br)cn2)nc1-c1nc2cc(C(F)(F)F)ncc2n1C [Example I-13]
pest or weed control at 100 g/ha (Myzus persicae [3]): 90%
pest or weed control at 4 ppm (Myzus persicae [5]): 90%

CCS(=O)(=O)c1ccc(N(C)C(C)=O)nc1-c1nc2cc(C(F)(F)F)ncc2n1C [Example No. 69 known from WO 2016/124557, reference compound]
Emax at 20 g/ha (Myzus persicae [3]): 0%
Emax at 4 g/ha (Nilaparvata lugens): 0%

CCS(=O)(=O)c1ccc(NC(=O)N(C)C)nc1-c1nc2cc(C(F)(F)F)ncc2n1C [Example I-15]
nematicidal efficacy (formation of galls) (Meloidogyne incognita): 100%
pest or weed control at 100 g/ha (Myzus persicae [3]): 90%
pest or weed control at 4 ppm (Myzus persicae [5]): 100%
efficacy (Phaedon cochleariae; 100 g/ha): 100%
